# Where a name gives a salt, the structure may show the parent alone. Read-outs that look alike come from different tables or passages of the source.
# Experiments:
# [1] = target: T1, angiotensin II-induced vasoconstriction (Oryctolagus cuniculus, UniProt P34976); assay: Angiotensin II Antagonist Dose-Response in Rabbit Thoracic Aorta (Schild plot); parameters: from tissue; host or cells: thoracic aorta rings of New Zealand white rabbits; species or system New Zealand white rabbits; conditions: for Kb: read-out: pA2 (converted)
# T1 sequence (P34976 1-359): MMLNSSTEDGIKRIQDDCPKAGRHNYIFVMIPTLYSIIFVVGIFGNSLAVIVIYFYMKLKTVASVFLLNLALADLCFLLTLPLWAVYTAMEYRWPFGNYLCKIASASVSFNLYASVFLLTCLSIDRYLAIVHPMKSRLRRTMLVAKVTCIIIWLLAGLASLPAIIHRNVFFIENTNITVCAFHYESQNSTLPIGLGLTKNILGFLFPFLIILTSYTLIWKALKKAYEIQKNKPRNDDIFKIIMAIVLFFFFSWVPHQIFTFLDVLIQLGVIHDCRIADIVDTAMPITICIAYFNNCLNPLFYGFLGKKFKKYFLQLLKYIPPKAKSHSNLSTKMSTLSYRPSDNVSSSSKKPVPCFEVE
# Text: Angiotensin II Antagonist Dose-Response in Rabbit Thoracic Aorta Purpose: […] [Chiu, […]., Price, W. A., Wong, […]., Duncia, […]., Yoo, S. E., Johnson, A. L., and […].: Nonpeptide angiotensin II receptor antagonists. VII. Cellular and Biochemical pharmacology of […], an orally active antihypertensive agent. J. Pharmacol. Exp. Ther., 252,726 (1990)]. Solution Preparation: […] For each test an aliquot is freshly thawed and serially diluted with Krebs bicarbonate buffer to provide stock solutions of angiotensin II in buffer for addition to the tissue baths. […] Procedure: 1.8 to 2.3 kg New Zealand white rabbits are sacrificed with an intravenous sodium pentobarbital overdose and the thoracic aorta gently dissected free from the aortic root to the level of the diaphragm, into ice cold Krebs bicarbonate buffer. The aorta is gently freed of clots and adventitia and cleanly cut into 5 mm segments. Each ring is suspended from a Gould isotonic force transducer in a tissue bath containing 15 mL oxygenated Krebs bicarbonate buffer regulated at 37° C. […] The test compound is then given to separate rings at different antagonist concentrations (n=2 rings/test concentration) in order to asses antagonist dose-response. The angiotensin II cumulative dose-response is then repeated in the presence of the test compound. Analysis: Angiotensin II vasoconstrictor tension in grams is expressed as a percent of maximal contraction for the before and after test compound angiotensin II dose-responses. […] See results in Table 2.
# Angiotensin Receptor [2] = assay: Screening Potential Angiotensin Receptor Antagonists in Salt-Depleted Normotensive Rats (blood pressure after oral dosing); format: in vivo, Sprague-Dawley rats; conditions: for Antihypertensive Activity (p.o.): active @ dose: oral, salt-depleted normotensive rats, active = MAP decrease of 10 or more mmHg vs concurrent control
# Text: Test Procedure for Screening Potenital Angiotensin Receptor Antagonists in Salt-Depleted Normotensive Rats
# Purpose: This test is designed to detect hypotensive effects of a compound after oral dosing in normotensive animals made renin-dependent by salt depletion. [Wong, P. C., Price, W. A., Chiu, A. T., Duncia, J. V., Carini, D. J., Wexler, R. R., Johnson, A. L., and Timmermans, P. B. M. W. M.: Nonpeptide angiotensin II receptor antagonists. VIII. […] J. Pharmacol. Exp. Ther., 252,726 (1990)]
# Solution Preparation: Oral 50 mg/kg furosemide doses are prepared from 10 mg/mL solutions of the intravenous pharmaceutical preparation (Lasix injection, Hoechst-Roussel Pharmaceutical). Test compound is uniformly suspended in 1% methylcellulose.
# (§1) Method: Male 350-450 g Sprague-Dawley rats are implanted with teflon microcannulae via the middle caudal artery under 20 mg/kg intravenous brevital anesthesia and permitted a 4-7 day surgical recovery period. Throughout recovery and testing animals are individually housed unrestrained in standard rat metabolism cages and receive continuous 0.5 mL/hour intra-arterial 0.25 N saline infusion through a spring-shielded swivelling tether connected to an infusion/blood pressure recording system to maintain arterial cannula patency. Animals are maintained on Low Sodium (0.03%) Pruina Rat Chow #5881 throughout the study. After the recovery period animals are given oral 50 mg/kg furosemide (Lasix, Hoechst-Roussel Pharmaceutical) doses on two consecutive days to produce marked diuresis and plasma volume depletion that makes maintenance of normal blood pressure highly dependent on function of the renin-angiotensin-aldosteronesystem. Three hours after the second furosemide dose, rats are given test compound uniformly suspended in 1% methylcellulose (n=3/dose level) or 1 mL 1% methylcellulose vehicle (n=3) orally by gavage and blood pressure is continuously recorded for 24 h using a Buxco computerized data recording system. Compound-induced changes in blood pressure are compared to concurrent vehicle control blood pressures in order to detect drug effect.
# Interpretation: Prior to salt depletion, normotensive rats typically show a plasma renin activity (PRA), measured by Radioimmuno Assay (RIA) of Angiotensin I (as ng Angiotensin I/mL plasma/hour) and yields a RIA of 0.7. After the salt-depletion protocol PRA values taken 3 hour after the furosemide dose have risen to about 7.4. […] PRA is increased by this DuP-753 treatment to about 41.4.
# Compounds that decrease blood pressure 10 or more mmHg (MAP) compared to concurrent control after oral dosing are considered active in this test. Maximum possible response is about-35 mmHg. See results in Table 2.
# [3] = target: T1, angiotensin II-induced vasoconstriction; assay: Inhibition of Angiotensin II Dose-Response in Rabbit Thoracic Aorta; parameters: from tissue; host or cells: thoracic aorta rings of New Zealand white rabbits; species or system New Zealand white rabbits; conditions: for inhibition at 10 µM: read-out: % Inh @ 10^-5 M; for EC90: contraction, 95% C.L. in brackets
# Procedure: VII. Cellular and Biochemical pharmacology of DuP 753, an orally active antihypertensive agent. J. Pharmacol. Exp. Ther., 252, 726 (1990)]
# Test compounds are diluted in dimethylsulfoxide vehicle such that a 50 μL addition to the tissue bath produces a final bath concentration of 1×10^-5 M compound in Krebs-bicarbonate buffer (baths contain 15 mL Krebs-bicarbonate buffer).
# Procedure: 1.8 to 2.3 kg New Zealand white rabbits are sacrificed with an intravenous sodium pentobarbital overdose and the thoracic aorta gently dissected free from the aortic root to the level of the diaphragm, into ice cold Krebs bicarbonate buffer. The aorta is gently freed of clots and adventitia and cleanly cut into 5 mm segments. Each ring is suspended from a Gould isotonic force transducer in a tissue bath containing 15 mL oxygenated Krebs bicarbonate buffer regulated at 37° C. Initial tenison is adjusted to 4.0 g and equilibrated over three 20-minute wash periods with fresh Krebs-bicarbonate buffer to achieve a baseline tension of 3.0 g. […] […] […] In addition, since the test compounds are dissolved in DMSO, DMSO alone is tested in two rings as a vehicle control in each screening experiment.
# [4] = tested on: plasma renin activity (PRA); assay: Plasma renin activity by Radioimmuno Assay of Angiotensin I in salt-depleted rats; format: in vivo, Sprague-Dawley rats; conditions: salt-depleted animals; about 7.4 after salt depletion before treatment
# Procedure: as §1, with “After the recovery period animals are given oral 50 mg/kg furosemide (Lasix, Hoechst-Roussel Pharmaceutical) doses on two consecutive days to produce marked diuresis and plasma volume depletion that makes maintenance of normal blood pressure highly dependent on function of the renin-angiotensin-aldosteronesystem.” left out, “Compound-induced changes in blood pressure are compared to concurrent vehicle control blood pressures in order to detect drug effect.” left out
# Interpretation: Prior to salt depletion, normotensive rats typically show a plasma renin activity (PRA), measured by Radioimmuno Assay (RIA) of Angiotensin I (as ng Angiotensin I/mL plasma/hour) and yields a RIA of 0.7. […]
# Angiotensin Receptor [5] = assay: Screening Potential Angiotensin Receptor Antagonists in Salt-Depleted Normotensive Rats (blood pressure after oral dosing); format: in vivo, Sprague-Dawley rats
Compound,Kb [1] [nM],Antihypertensive Activity (p.o.): active @ dose (Angiotensin Receptor [2]) [mpk],inhibition at 10 µM [3] [%],other results
"CCOC(=O)C=C1C2C3CCC(C3)C2C(=O)N1Cc1ccc(-c2ccccc2-c2nnn[nH]2)cc1 (stereo not drawn) [z, 3-Carbethoxymethyliden-2-[4-2-(tetrazolophenyl)benzyl]-4,7-endomethylen-1,3,4,5,6,7-hexahydro-1-oxoisoindole]",1.05,30,100,
CCCCc1nc(Cl)c(CO)n1Cc1ccc(-c2ccccc2-c2nn[nH]n2)cc1 [DuP-753],,,,"blood pressure decrease (mean arterial pressure, MAP) (Angiotensin Receptor [2]; salt-depleted animals, typical response): about 35 mmHg; plasma renin activity (PRA) after treatment [4]: about 41.4 ng Angiotensin I/mL plasma/hour; blood pressure response in normotensive rats that have not been salt-depleted (Angiotensin Receptor [5]): does not change"
"CCOC(=O)C=C1N(Cc2ccc(-c3ccccc3-c3nnn[nH]3)cc2)C(=O)CC12CCCCCC2 [ad, 5-Carbethoxymethylidine-4-spirocycloheptyl-1-[4-(2-tetrazolophenyl)benzyl]pyrrolidin-2-one Pyridinium Salt, 1.3 Hydrate]",4.37,30,100,
"CCOC(=O)C=C1C2C3C=CC(CCC3)C2C(=O)N1Cc1ccc(-c2ccccc2-c2nnn[nH]2)cc1 (stereo not drawn) [ah, 3-Carbethoxymethyliden-2-[4-(2-tetrazolophenyl)benzyl]-4,7-endopropylen-1,3,4,7-tetrahydro-1-oxoisoindole Pyridinium Salt, 1.75 Hydrate]",14.1,> 30,100,
angiotensin II [reference compound],,,,"EC90 ([3]; read-out: Mean ED90 for angiotensin II after DMSO vehicle treatment, after DMSO vehicle): 5.88 nM; EC90 ([3]; read-out: Mean ED90 for angiotensin II before DMSO vehicle treatment, before DMSO vehicle): 4.44 nM"
"CCOC(=O)C=C1CC(C)(C)CC(=O)N1Cc1ccc(-c2ccccc2-c2nnn[nH]2)cc1 [s, 6-Carbethoxymethyliden-4,4-dimethyl-1-[4-(2-tetrazolophenyl)benzyl]piperidin-2-one Pyridinium salt]",39.8,30,100,
"CCOC(=O)C=C1C2C3CCCC(CC3)C2C(=O)N1Cc1ccc(-c2ccccc2-c2nnn[nH]2)cc1 (stereo not drawn) [ag, 3-Carbethoxymethyliden-2-[4-(2-tetrazolophenyl)benzyl]-4,7-endopropylen-1,3,4,5,6,7-hexahydro-1-oxoisoindole Dihydrate]",,30,100,
"CCOC(=O)C=C1C2C3C=CC(CC3)C2C(=O)N1Cc1ccc(-c2ccccc2C#N)cc1 (stereo not drawn) [p, 3-Carbethoxymethyliden-2-[4-(2-cyanophenyl)benzyl]-4,7-endoethylen-1,3,4,7-tetrahydro-1-oxoisoindole]",,,3,
"CCOC(=O)C=C1C2C3C=CC(C3)C2C(=O)N1Cc1ccc(-c2ccccc2C(=O)OC)cc1 (stereo not drawn) [m, 3-Carbethoxymethyliden-2-[4-(2-carbomethoxyphenyl)benzyl]-4,7-endomethylen-1,3,4,7-tetrahydro-1-oxoisoindole]",,,0,
"CCOC(=O)C=C1C2C3C=CC(CC3)C2C(=O)N1Cc1ccc(-c2ccccc2-c2nnn[nH]2)cc1 (stereo not drawn) [u, 3-Carbethoxymethyliden-2-[4-(2-tetrazolophenyl)benzyl]-4,7-endoethylen-1,3,4,7-tetrahydro-1-oxoisoindole]",6.92,30,99,
"CCOC(=O)C=C1N(Cc2ccc(-c3ccccc3-c3nnn[nH]3)cc2)C(=O)CC12CCCCC2 [ac, 5-Carbethoxymethyliden-4-spirocyclohexyl-1-[4-(2-tetrazolophenyl)benzyl]pyrrolidin-2-one Pyridinium Salt,1.2 Hydrate]",,30,100,"pA2 ([1]; Schild plot vs angiotensin II, rabbit thoracic aorta rings): 7.93"
"CCOC(=O)C=C1CC2(CCCC2)CC(=O)N1Cc1ccc(-c2ccccc2-c2nnn[nH]2)cc1 [t, 6-Carbethoxymethyliden-4-spirocyclopentyl-1-[4-(2-tetrazolophenyl)benzyl]piperidin-2-one Pyridinium Salt]",14.1,30,100,
"CCOC(=O)C=C1N(Cc2ccc(-c3ccccc3-c3nnn[nH]3)cc2)C(=O)CC12CCCC2 [af, 5-Carbethoxymethylidine-4-spirocyclopentyl-1-[4-(2-tetrazolophenyl)benzyl]pyrrolidin-5-one Pyridinium Salt, 1.4 Hydrate]",3.63,30,100,
"CCOC(=O)C=C1C2C3C=CC(C3)C2C(=O)N1Cc1ccc(-c2ccccc2-c2nnn[nH]2)cc1 (stereo not drawn) [v, 3-Carbethoxymethyliden-2-[4-(2-tetrazolophenyl)benzyl]-4,7-endomethylen-1,3,4,7-tetrahydro-1-oxoisoindole Pyridinium Salt]",4.47,,100,
"CCOC(=O)C=C1CC(C)(CC)CC(=O)N1Cc1ccc(-c2ccccc2-c2nnn[nH]2)cc1 (stereo not drawn) [ae, 6-Carbethoxymethyliden-4-ethyl-4-methyl-1-[4-(2-tetrazolophenyl)benzyl]piperidine-2-one Pyridinium Salt, 1.25 Hydrate]",1.07,10,100,
"CCOC(=O)C=C1C2C3CCC(C3)C2C(=O)N1Cc1ccc(-c2ccccc2C(=O)OC)cc1 (stereo not drawn) [y, 3-Carbethoxymethyliden-2-[4-(2-carbomethoxyphenyl)benzyl]-4,7-endomethylen-1,3,4,5,6,7-hexahydro-1-oxoisoindole]",,,0,

# Reference: patent publication US5246940A, “Substituted N-biphenylyl lactams” (Ortho Pharmaceutical Corporation, priority 1993, dated 1993)
